Assay results taken from patent US20130071854A1, “METHODS FOR THE IDENTIFICATION AND CHARACTERIZATION OF HDAC INTERACTING COMPOUNDS” (priority 2009, published 2013).
Where “and” joins values, the source holds several entries; their conditions need not be identical. Identical values can stand only once. Like-named read-outs stand apart in the source and are kept apart here.

Tests used:
[1] = tested on: T1, MiDAC complex (HDAC1/2, DNTTIP1, CDYL, MIDEAS); experiment: Chemoproteomic binding profiling, K562 cell extract, SAHA/ITF2357 probe matrix (Kd app); parameters: species or system human
T1 construct: Kd^app MIDEAS; other: protein MIDEAS; MiDAC complex; Kd^app DNTTIP1; other: protein DNTTIP1

IFNα secretion = IFNα secretion assay in peripheral blood mononuclear cells stimulated with ODN2216; settings: Homo sapiens, PBMC, read-out: EC50 inhibition of secretion of IFNα
HDAC6 = biological target: T2, HDAC6 (Homo sapiens, UniProt Q9UBN7); experiment: Compound screening, competition binding with SAHA-beads, antibody dot-blot arrays, Jurkat and Ramos whole cell extract; parameters: endogenous in cells; Jurkat/Ramos whole cell extract
T2 sequence (Q9UBN7 1-1215): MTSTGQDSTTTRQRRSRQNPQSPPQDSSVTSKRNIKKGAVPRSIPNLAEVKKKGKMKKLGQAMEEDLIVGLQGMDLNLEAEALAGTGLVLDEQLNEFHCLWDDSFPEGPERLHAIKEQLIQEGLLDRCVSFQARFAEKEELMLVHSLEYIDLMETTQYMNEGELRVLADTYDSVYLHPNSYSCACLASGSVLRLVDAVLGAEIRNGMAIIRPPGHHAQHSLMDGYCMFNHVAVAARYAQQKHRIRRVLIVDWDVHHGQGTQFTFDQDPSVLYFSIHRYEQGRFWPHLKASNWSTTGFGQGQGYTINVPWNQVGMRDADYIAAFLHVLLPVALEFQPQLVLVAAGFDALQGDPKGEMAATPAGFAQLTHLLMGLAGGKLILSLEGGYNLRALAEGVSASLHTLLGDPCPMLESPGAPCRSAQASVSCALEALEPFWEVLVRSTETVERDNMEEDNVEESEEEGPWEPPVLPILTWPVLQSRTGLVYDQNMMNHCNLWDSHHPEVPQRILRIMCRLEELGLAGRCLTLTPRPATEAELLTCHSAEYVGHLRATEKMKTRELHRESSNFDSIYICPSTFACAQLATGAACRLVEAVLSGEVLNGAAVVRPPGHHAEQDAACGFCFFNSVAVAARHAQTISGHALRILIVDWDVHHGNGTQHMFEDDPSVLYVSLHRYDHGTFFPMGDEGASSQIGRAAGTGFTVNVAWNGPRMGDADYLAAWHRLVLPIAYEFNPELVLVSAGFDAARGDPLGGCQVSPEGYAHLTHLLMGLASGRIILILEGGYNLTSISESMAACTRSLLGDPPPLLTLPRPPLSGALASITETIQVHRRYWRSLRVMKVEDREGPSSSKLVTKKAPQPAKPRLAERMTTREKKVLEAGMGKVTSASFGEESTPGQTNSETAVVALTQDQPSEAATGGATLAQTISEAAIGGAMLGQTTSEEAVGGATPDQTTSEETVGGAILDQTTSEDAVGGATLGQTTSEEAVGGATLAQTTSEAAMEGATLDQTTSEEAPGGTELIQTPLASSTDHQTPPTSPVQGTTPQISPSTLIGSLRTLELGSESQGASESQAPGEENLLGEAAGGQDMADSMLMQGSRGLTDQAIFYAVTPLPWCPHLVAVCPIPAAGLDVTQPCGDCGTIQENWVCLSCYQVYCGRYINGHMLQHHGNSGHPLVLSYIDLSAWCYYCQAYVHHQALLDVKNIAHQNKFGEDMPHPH
From the text: To enable the discovery of novel selective HDACi we developed a high throughput variation of the chemoproteomics protocol in which MS/MS detection is replaced with multiplexed fluorescent antibody detection on “dot blot” type arrays. The method was applied to the screening of a focused compound library in whole cell extract of Jurkat and Ramos cells for inhibitors of HDAC1, 2, 3 and 6. Several hits were obtained with a few compounds displaying a notable degree of selectivity (FIG. 35a). […] The cellular potency for tubulin deacetylation correlated with the potency for one of the drugs' anti-inflammatory effects, the secretion of IFNα in peripheral blood mononuclear cells (FIG. 35d).
The compounds for screening was selected either for their potential to be Zinc chelators or based on a similarity search of the compound collections from Asinex Corp. (Winston-Salem, N.C., USA) and Enamine (Mammouth_Jct., NJ, USA), using a training set of 140 known HDAC inhibitors. Competition binding assays using SAHA-beads were performed essentially as described above but adapted to a 96-well format. 1 mg of cell lysate and 5 μl of beads were used per well. Compounds from the screening library including reference compounds as standards were added at 20 μM and 100 μM final concentration from 50×DMSO stocks. Each plate contained 8 positive (TSA 50 μM) and eight negative controls (2% DMSO). […]

ALDH2 = biological target: T3, ALDH2 (Homo sapiens, UniProt P05091); experiment: Competition binding assay in cell lysate, affinity matrix, MS
T3 construct: endogenous in cells
T3 sequence (P05091 18-517): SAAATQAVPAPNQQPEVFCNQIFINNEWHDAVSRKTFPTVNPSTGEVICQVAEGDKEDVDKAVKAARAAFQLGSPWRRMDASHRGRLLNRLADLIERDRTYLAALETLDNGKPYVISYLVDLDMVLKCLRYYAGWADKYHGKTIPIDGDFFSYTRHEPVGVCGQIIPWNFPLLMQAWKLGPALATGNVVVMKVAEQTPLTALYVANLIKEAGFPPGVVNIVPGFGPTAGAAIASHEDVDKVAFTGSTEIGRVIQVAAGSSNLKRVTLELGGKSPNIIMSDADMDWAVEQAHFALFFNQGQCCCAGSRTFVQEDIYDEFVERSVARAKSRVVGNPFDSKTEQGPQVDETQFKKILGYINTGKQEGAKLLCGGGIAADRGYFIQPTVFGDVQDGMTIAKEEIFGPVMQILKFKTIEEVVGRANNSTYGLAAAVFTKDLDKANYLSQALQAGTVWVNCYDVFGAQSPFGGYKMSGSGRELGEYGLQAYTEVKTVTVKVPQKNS

recombinant HDACs 1-11 = experiment: Binding of probe matrix to recombinant HDACs purified from Sf9 cells, competition by free SAHA; settings: recombinant HDACs 1-11 purified from Sf9 cells
MTA3 = experiment: Competition binding assay in cell lysate, affinity matrix, MS (Mi-2/NuRD interactor)
[2] = tested on: histone acetylation, K562 cells; experiment: Mapping of histone acetylation by LC-MS/MS of K562 cells treated with HDACi; type: cell-based, human; settings: K562 cells treated 6 hours, isobaric tagging and MS/MS
RBBP4 = settings: K-562 cell lysate

With `Nc1ccccc1NC(=O)CCCCCCC(=O)Nc1ccccc1` [BML-210] the Kd ([1]; protein DNTTIP1, read-out: Kd^app DNTTIP1) was > 85 µM and the Kd ([1]; protein MIDEAS, read-out: Kd^app MIDEAS) was > 85 µM.
`CCCCOc1ccc(CC(=O)NO)cc1` [bufexamac] was tested, and the EC50 (IFNα secretion) was 8.9 µM and the “screen result for HDAC6 (in words)” value (HDAC6) was “preferentially affect HDAC6”.
With `O=C(CCCCCCC(=O)Nc1ccccc1)NO` [SAHA, suberoylanilide hydroxamic acid] the IC50 (ALDH2; IC50, ALDH2, K-562 cell lysate) was 0.63 µM, the IC50 (ALDH2; IC50, ALDH2, mix of Jurkat and Ramos cell lysates) was 4.81 µM and the “competition of capture of recombinant HDACs by the probe matrix (in words)” value (recombinant HDACs 1-11) was “only affected at a high excess of free SAHA”. The IC50 (MTA3; K-562 cell lysate) was 1.93 µM and the IC50 (MTA3; mix of Jurkat and Ramos cell lysates) was 1.8 µM and 1.82 µM.
For `CCCC(CCC)C(=O)O` [valproate, valproic acid], the “abundance of acetylated histone peptides (in words)” value [2] was “more selective effect”.
With `Nc1ccccc1NC(=O)c1ccc(CNC(=O)OCc2cccnc2)cc1` [MS-275] the IC50 (ALDH2; read-out: IC50) was ≥ 300 µM, the IC50 (RBBP4) was 300 µM and the IC50 (MTA3; K-562 cell lysate) was 300 µM.
